This is an account of results in patent US8519096B2, “Citrullinated peptides for diagnosing and prognosing rheumatoid arthritis” (Nestec S.A., priority 2009, dated 2013).

This assay concerns IgG ACPAs. Description: ACPA ELISA with anti-human IgG secondary antibody. The assay is classed as binding. To be noted: Example 7, FIGS. 20-27. As to the method:
The synthetic citrullnated peptides set forth in Example 6, which were designed from synovial proteins, were synthesized and evaluated for their ability to diagnose and/or prognose RA. […] The peptides were then tested for IgG ACPA dose-response in samples of synovial fluid taken from both healthy patients and patients with RA.
(In general: An ELISA detects its analyte on a solid surface through an enzyme-linked reagent.)

Non-standard residues stand in square brackets, D forms with d. *: point of attachment. Biotin = O=C1N[C@H]2[C@H](CS[C@H]2CCCCC(=O)*)N1; Cit = NC(=O)NCCC[C@H](N)C(=O)O

Turning to “T10α1-1: synthetic citrullinated peptide derived from collagen (Coll.T10α1), Table 8 (Biotin-KAGQ[Cit]PSLSGDKILYN[Cit]QQ[Cit]TGIFTSQIR-NH2; SMILES CC[C@H](C)[C@H](NC(=O)CNC(=O)[C@@H](NC(=O)[C@H](CCCNC(N)=O)NC(=O)[C@H](CCC(N)=O)NC(=O)[C@H](CCC(N)=O)NC(=O)[C@H](CCCNC(N)=O)NC(=O)[C@H](CC(N)=O)NC(=O)[C@H](Cc1ccc(O)cc1)NC(=O)[C@H](CC(C)C)NC(=O)[C@@H](NC(=O)[C@H](CCCCN)NC(=O)[C@H](CC(=O)O)NC(=O)CNC(=O)[C@H](CO)NC(=O)[C@H](CC(C)C)NC(=O)[C@H](CO)NC(=O)[C@@H]1CCCN1C(=O)[C@H](CCCNC(N)=O)NC(=O)[C@H](CCC(N)=O)NC(=O)CNC(=O)[C@H](C)NC(=O)[C@H](CCCCN)NC(=O)CCCC[C@@H]1SC[C@@H]2NC(=O)N[C@@H]21)[C@@H](C)CC)[C@@H](C)O)C(=O)N[C@@H](Cc1ccccc1)C(=O)N[C@H](C(=O)N[C@@H](CO)C(=O)N[C@@H](CCC(N)=O)C(=O)N[C@H](C(=O)N[C@@H](CCCNC(=N)N)C(N)=O)[C@@H](C)CC)[C@@H](C)O)”, the “IgG ACPA positive response (strong/moderate)” value is on record as “moderate”.

In the case of “T11α2-1: synthetic citrullinated peptide derived from collagen (Coll.T11α2), Table 8 (Biotin-GISPADVAY[Cit]VARPAQLYRVA[Cit]PAQLSAPT[Cit]QR-NH2; SMILES CC[C@H](C)[C@H](NC(=O)CNC(=O)CCCC[C@@H]1SC[C@@H]2NC(=O)N[C@@H]21)C(=O)N[C@@H](CO)C(=O)N1CCC[C@H]1C(=O)N[C@@H](C)C(=O)N[C@@H](CC(=O)O)C(=O)N[C@H](C(=O)N[C@@H](C)C(=O)N[C@@H](Cc1ccc(O)cc1)C(=O)N[C@@H](CCCNC(N)=O)C(=O)N[C@H](C(=O)N[C@@H](C)C(=O)N[C@@H](CCCNC(=N)N)C(=O)N1CCC[C@H]1C(=O)N[C@@H](C)C(=O)N[C@@H](CCC(N)=O)C(=O)N[C@@H](CC(C)C)C(=O)N[C@@H](Cc1ccc(O)cc1)C(=O)N[C@@H](CCCNC(=N)N)C(=O)N[C@H](C(=O)N[C@@H](C)C(=O)N[C@@H](CCCNC(N)=O)C(=O)N1CCC[C@H]1C(=O)N[C@@H](C)C(=O)N[C@@H](CCC(N)=O)C(=O)N[C@@H](CC(C)C)C(=O)N[C@@H](CO)C(=O)N[C@@H](C)C(=O)N1CCC[C@H]1C(=O)N[C@H](C(=O)N[C@@H](CCCNC(N)=O)C(=O)N[C@@H](CCC(N)=O)C(=O)N[C@@H](CCCNC(=N)N)C(N)=O)[C@@H](C)O)C(C)C)C(C)C)C(C)C)”, the “IgG ACPA positive response (strong/moderate)” value is “strong”. Turning to “Apo a-6: synthetic citrullinated peptide derived from Apolipoprotein a, Table 8 (Biotin-HWHR[Cit]IPLYYPNAGLT[Cit]AGLTRNYS[Cit]N-NH2; SMILES CC[C@H](C)[C@H](NC(=O)[C@H](CCCNC(N)=O)NC(=O)[C@H](CCCNC(=N)N)NC(=O)[C@H](Cc1c[nH]cn1)NC(=O)[C@H](Cc1c[nH]c2ccccc12)NC(=O)[C@H](Cc1c[nH]cn1)NC(=O)CCCC[C@@H]1SC[C@@H]2NC(=O)N[C@@H]21)C(=O)N1CCC[C@H]1C(=O)N[C@@H](CC(C)C)C(=O)N[C@@H](Cc1ccc(O)cc1)C(=O)N[C@@H](Cc1ccc(O)cc1)C(=O)N1CCC[C@H]1C(=O)N[C@@H](CC(N)=O)C(=O)N[C@@H](C)C(=O)NCC(=O)N[C@@H](CC(C)C)C(=O)N[C@H](C(=O)N[C@@H](CCCNC(N)=O)C(=O)N[C@@H](C)C(=O)NCC(=O)N[C@@H](CC(C)C)C(=O)N[C@H](C(=O)N[C@@H](CCCNC(=N)N)C(=O)N[C@@H](CC(N)=O)C(=O)N[C@@H](Cc1ccc(O)cc1)C(=O)N[C@@H](CO)C(=O)N[C@@H](CCCNC(N)=O)C(=O)N[C@@H](CC(N)=O)C(N)=O)[C@@H](C)O)[C@@H](C)O)”, the “IgG ACPA positive response (strong/moderate)” value is recorded as “strong”. Turning to “T11α2-4: synthetic citrullinated peptide derived from collagen (Coll.T11α2), Table 8 (Biotin-GH[Cit]AQRSPQQQPS[Cit]LHRPQNQE-NH2; SMILES CC(C)C[C@H](NC(=O)[C@H](CCCNC(N)=O)NC(=O)[C@H](CO)NC(=O)[C@@H]1CCCN1C(=O)[C@H](CCC(N)=O)NC(=O)[C@H](CCC(N)=O)NC(=O)[C@H](CCC(N)=O)NC(=O)[C@@H]1CCCN1C(=O)[C@H](CO)NC(=O)[C@H](CCCNC(=N)N)NC(=O)[C@H](CCC(N)=O)NC(=O)[C@H](C)NC(=O)[C@H](CCCNC(N)=O)NC(=O)[C@H](Cc1c[nH]cn1)NC(=O)CNC(=O)CCCC[C@@H]1SC[C@@H]2NC(=O)N[C@@H]21)C(=O)N[C@@H](Cc1c[nH]cn1)C(=O)N[C@@H](CCCNC(=N)N)C(=O)N1CCC[C@H]1C(=O)N[C@@H](CCC(N)=O)C(=O)N[C@@H](CC(N)=O)C(=O)N[C@@H](CCC(N)=O)C(=O)N[C@@H](CCC(=O)O)C(N)=O)”, the “IgG ACPA positive response (strong/moderate)” value was “moderate”. In the case of “H2B-2: synthetic citrullinated peptide derived from histone (H2B), Table 8 (Biotin-SFVNDIFE[Cit]IAGEAS[Cit]LAHYNKRSTITS[Cit]EG-NH2; SMILES CC[C@H](C)[C@H](NC(=O)[C@H](CCCNC(N)=O)NC(=O)[C@H](CCC(=O)O)NC(=O)[C@H](Cc1ccccc1)NC(=O)[C@@H](NC(=O)[C@H](CC(=O)O)NC(=O)[C@H](CC(N)=O)NC(=O)[C@@H](NC(=O)[C@H](Cc1ccccc1)NC(=O)[C@H](CO)NC(=O)CCCC[C@@H]1SC[C@@H]2NC(=O)N[C@@H]21)C(C)C)[C@@H](C)CC)C(=O)N[C@@H](C)C(=O)NCC(=O)N[C@@H](CCC(=O)O)C(=O)N[C@@H](C)C(=O)N[C@@H](CO)C(=O)N[C@@H](CCCNC(N)=O)C(=O)N[C@@H](CC(C)C)C(=O)N[C@@H](C)C(=O)N[C@@H](Cc1c[nH]cn1)C(=O)N[C@@H](Cc1ccc(O)cc1)C(=O)N[C@@H](CC(N)=O)C(=O)N[C@@H](CCCCN)C(=O)N[C@@H](CCCNC(=N)N)C(=O)N[C@@H](CO)C(=O)N[C@H](C(=O)N[C@H](C(=O)N[C@H](C(=O)N[C@@H](CO)C(=O)N[C@@H](CCCNC(N)=O)C(=O)N[C@@H](CCC(=O)O)C(=O)NCC(N)=O)[C@@H](C)O)[C@@H](C)CC)[C@@H](C)O)”, the “IgG ACPA positive response (strong/moderate)” value was “moderate”. “T9α1-1: synthetic citrullinated peptide derived from collagen (Coll.T9α1), Table 8 (Biotin-KRRP[Cit]FPVNSFQVDKAAS[Cit]AIQRVVGSRAIQ[Cit]VVGSA-NH2; SMILES CC[C@H](C)[C@H](NC(=O)[C@H](C)NC(=O)[C@H](CCCNC(=N)N)NC(=O)[C@H](CO)NC(=O)CNC(=O)[C@@H](NC(=O)[C@@H](NC(=O)[C@H](CCCNC(=N)N)NC(=O)[C@H](CCC(N)=O)NC(=O)[C@@H](NC(=O)[C@H](C)NC(=O)[C@H](CCCNC(N)=O)NC(=O)[C@H](CO)NC(=O)[C@H](C)NC(=O)[C@H](C)NC(=O)[C@H](CCCCN)NC(=O)[C@H](CC(=O)O)NC(=O)[C@@H](NC(=O)[C@H](CCC(N)=O)NC(=O)[C@H](Cc1ccccc1)NC(=O)[C@H](CO)NC(=O)[C@H](CC(N)=O)NC(=O)[C@@H](NC(=O)[C@@H]1CCCN1C(=O)[C@H](Cc1ccccc1)NC(=O)[C@H](CCCNC(N)=O)NC(=O)[C@@H]1CCCN1C(=O)[C@H](CCCNC(=N)N)NC(=O)[C@H](CCCNC(=N)N)NC(=O)[C@H](CCCCN)NC(=O)CCCC[C@@H]1SC[C@@H]2NC(=O)N[C@@H]21)C(C)C)C(C)C)[C@@H](C)CC)C(C)C)C(C)C)C(=O)N[C@@H](CCC(N)=O)C(=O)N[C@@H](CCCNC(N)=O)C(=O)N[C@H](C(=O)N[C@H](C(=O)NCC(=O)N[C@@H](CO)C(=O)N[C@@H](C)C(N)=O)C(C)C)C(C)C)”: the “IgG ACPA positive response (strong/moderate)” value is “moderate”. As for “H2B-3: synthetic citrullinated peptide derived from histone (H2B), Table 8 (Biotin-SRLAHYNK[Cit]STITSREIQTAV[Cit]LG-NH2; SMILES CC[C@H](C)[C@H](NC(=O)[C@H](CCC(=O)O)NC(=O)[C@H](CCCNC(=N)N)NC(=O)[C@H](CO)NC(=O)[C@@H](NC(=O)[C@@H](NC(=O)[C@@H](NC(=O)[C@H](CO)NC(=O)[C@H](CCCNC(N)=O)NC(=O)[C@H](CCCCN)NC(=O)[C@H](CC(N)=O)NC(=O)[C@H](Cc1ccc(O)cc1)NC(=O)[C@H](Cc1c[nH]cn1)NC(=O)[C@H](C)NC(=O)[C@H](CC(C)C)NC(=O)[C@H](CCCNC(=N)N)NC(=O)[C@H](CO)NC(=O)CCCC[C@@H]1SC[C@@H]2NC(=O)N[C@@H]21)[C@@H](C)O)[C@@H](C)CC)[C@@H](C)O)C(=O)N[C@@H](CCC(N)=O)C(=O)N[C@H](C(=O)N[C@@H](C)C(=O)N[C@H](C(=O)N[C@@H](CCCNC(N)=O)C(=O)N[C@@H](CC(C)C)C(=O)NCC(N)=O)C(C)C)[C@@H](C)O)”, the “IgG ACPA positive response (strong/moderate)” value is reported as “strong”. As to “FBNT-10: synthetic citrullinated peptide derived from fibronectin, Table 8 (Biotin-GGFR[Cit]TTPPTTF[Cit]RTTPPTTAR-NH2; SMILES C[C@H](NC(=O)[C@@H](NC(=O)[C@@H](NC(=O)[C@@H]1CCCN1C(=O)[C@@H]1CCCN1C(=O)[C@@H](NC(=O)[C@@H](NC(=O)[C@H](CCCNC(=N)N)NC(=O)[C@H](CCCNC(N)=O)NC(=O)[C@H](Cc1ccccc1)NC(=O)[C@@H](NC(=O)[C@@H](NC(=O)[C@@H]1CCCN1C(=O)[C@@H]1CCCN1C(=O)[C@@H](NC(=O)[C@@H](NC(=O)[C@H](CCCNC(N)=O)NC(=O)[C@H](CCCNC(=N)N)NC(=O)[C@H](Cc1ccccc1)NC(=O)CNC(=O)CNC(=O)CCCC[C@@H]1SC[C@@H]2NC(=O)N[C@@H]21)[C@@H](C)O)[C@@H](C)O)[C@@H](C)O)[C@@H](C)O)[C@@H](C)O)[C@@H](C)O)[C@@H](C)O)[C@@H](C)O)C(=O)N[C@@H](CCCNC(=N)N)C(N)=O)”, the “IgG ACPA positive response (strong/moderate)” value is on record as “moderate”.
